Measured values as given in paper PMC9028180, “Anti-Inflammatory Activity of Monosubstituted Xestoquinone Analogues from the Marine Sponge Neopetrosia compacta” (Antioxidants, 2022).
Where two headings read alike, the source gives them in different places.

How the values were obtained:
[1] = test system: Nrf2-luciferase reporter MCF7 stable cells; experiment: Cytotoxicity counter-screen on Nrf2-luciferase reporter MCF7 cells; assay type: cell-based
Description: Absorbance was measured at 570 nm. […] For the cytotoxicity counter-screen, Nrf2-luciferase reporter MCF7 stable cells were grown, seeded, and treated identically with the reporter assay. Cell viability was done using the tetrazolium reagent, as indicated previously.

Nqo1 = experiment: qRT-PCR differential gene expression, Nqo1; assay type: cell-based, murine; settings: 10 μM, 12 h, LPS-stimulated RAW 264.7
Description: (§1) RAW 264.7 cells (passage number ≤ 6) were seeded in a 6-well microplate at a density of 2.5 × 10^5 cells/well and incubated for 24 h at 37 °C with 5% CO2 prior to treatment. Cells were treated with 10 μM compound or 0.5% DMSO in duplicate and incubated for 1 h before stimulation with LPS (1 µg/mL). At 12 h post-treatment, total RNA was extracted with Qiagen RNeasy extraction kit (Germantown, MD, USA) according to manufacturer’s protocol. RNA was reverse-transcribed from 2 µg of total RNA using SuperScript IV Reverse Transcriptase (Invitrogen, Waltham, MA, USA), 1 mM dNTP, and Oligo (dT)12–18 primer (0.5 µg/mL, Invitrogen). Quantitative real time-PCR (qRT-PCR) was performed in ABI 7500 Fast Real-Time PCR (Applied Biosystems, Bedford, MA, USA). qRT-PCR was performed as a 25 µL total reaction mixture, composed of 1X TaqMan® universal master mix, 1X TaqMan® gene expression assay mix, 2 µL of cDNA, and 9.25 µL RNase-free sterile water. Analyses were carried out using probes for Il1b (Assay ID Mm00434228_m1), Nos2 (Mm00440502_m1), and Nqo1 (Mm01253561_m1). The thermocycler program was designed as follows: 50 °C for 2 min, 95 °C for 10 min, and 40 cycles of 95 °C for 15 s and 60 °C for 1 min. Mouse Gapdh (Mm99999915_g1) was used as the internal control for normalization. The measurement of gene expression is reported in cycles to threshold (Ct) PCR, whose value represents the cycle number at which the amount of amplified DNA of the target gene reached the threshold level. The relative gene expression was analyzed using the comparative Ct method to compare the Ct value of the target gene to the internal control in a treatment sample. Statistical analysis on the relative gene expression was carried out using one-way ANOVA and Tukey’s multiple comparison test with p-value < 0.05. Analysis was done in two independent experiments with three technical replicates each.

Nos2 = experiment: qRT-PCR differential gene expression, Nos2; assay type: cell-based, murine; settings: 10 μM, 12 h, LPS-stimulated RAW 264.7; relative to LPS-stimulated solvent control
Description: as §1

[2] = test system: Nrf2-luciferase reporter MCF7 stable cells; experiment: Nrf2-ARE activation luciferase reporter assay; assay type: cell-based
Description: Nrf2-luciferase reporter MCF7 stable cells (Signosis, Inc.) were grown in high glucose DMEM (Hyclone, Logan, UT, USA) supplemented with 10% FBS, 1% antibiotic-antimycotic solution, and 75 µg/mL geneticin. A 100-µL cell suspension was plated with a seeding density of 20,000 cells/well. The plate was incubated at 37 °C with 5% CO2 for 24 h prior to treatment. Cells were treated with compounds at half-log dilution, ranging from 0.032–100 µM (0.5% DMSO). DMSO (0.5%) and tBHQ (0.01–32 μM) served as solvent and positive controls, respectively. After 8-, 12-, and 16-h incubation, the medium was removed, and cells were washed with 100 µL 1X PBS. Lysis buffer (Signosis, Inc.) was added, and the plate was further incubated for 15 min at room temperature. A 100-µL firefly luciferase substrate (Signosis, Inc.) was added, and luminescence was measured. Nrf2 fold activation of treated cells was assessed relative to the solvent control. The assay was done in two independent experiments in triplicate.

[3] = test system: NO production in LPS-stimulated RAW 264.7 murine macrophage cells; experiment: Nitric oxide production assay (Griess) in LPS-stimulated RAW 264.7 cells; assay type: cell-based
Description: The anti-inflammatory activity of the extracts and compounds was assessed according to the procedure of Ratnayake et al. (2013). RAW 264.7 murine macrophage cells (passage number ≤ 6) were grown in Dulbecco’s Modified Eagle’s Medium (DMEM) supplemented with 10% fetal bovine serum (FBS) and 1% antibiotic-antimycotic solution. At 24 h post-incubation, the cells (200,000 cells/mL) were treated with extracts (50 and 5 µg/mL) or pure compounds in triplicate. For pure compounds, a 20 mM stock was prepared in DMSO and serially diluted to generate eight concentrations ranging from 0.032–100 µM. DMSO (0.5%) served as the solvent control. Dexamethasone (50 µM) and tBHQ (10 µM) served as positive controls. LPS (1 µg/mL) was added to each well after 1 h of extract or compound pre-treatment. A reverse treatment was also done for compounds, where cells were first pre-treated with LPS (1 µg/mL) prior to the addition of the compound.
After 24 h of incubation, NO production was assessed by measuring the nitrite concentration using the Griess Reagent System (Promega, Madison, WI, USA) according to the manufacturer’s protocol. Results were presented as %NO production relative to LPS-stimulated solvent control.

Il1b = experiment: qRT-PCR differential gene expression, Il1b; assay type: cell-based, murine; settings: 10 μM, 12 h, LPS-stimulated RAW 264.7; relative to LPS-stimulated solvent control
Description: as §1

[4] = test system: LPS-stimulated RAW 264.7 murine macrophage cells; experiment: Tetrazolium-based (MTT) cell viability assay; settings: for CC50: Mus musculus, RAW264.7, 24 h; for decrease in cytotoxicity relative to 1: from cell viability IC50, compound pre-treatment + LPS; for IC50: read-out: Cell Viability (IC50)
Description: MTT solution (5 mg/mL in PBS, 15 µL) was added to the original assay plate, and the reaction was terminated with the addition of acidified sodium dodecyl sulfate (SDS) solution after 2 h. Absorbance was measured at 570 nm. […] The concentration-dependent response curve for cell viability of the pure compounds was generated, and the IC50 was determined using a non-linear regression, inhibitor vs. normalized response—variable slope analysis. Samples were tested in at least one independent experiment performed in triplicate.
Statistical comparison of the cell viability IC50 of 2–6 relative to xestoquinone (1) was analyzed using one-way ANOVA and Tukey’s post-hoc test at p-value < 0.05. Comparison of the IC50 values from NO production and cytotoxicity assessment for each of the compounds were analyzed using a one-tailed unpaired t-test at p-value < 0.05.

[5] = Direct antioxidant activity, DPPH scavenging assay; settings: 30 min, room temperature
Description: The direct antioxidant activity of 1–6 was determined using the 2,2-diphenyl-1-picrylhydrazyl (DPPH) scavenging method. Half-log dilution of 1–6 (0.032 to 100 µM) was prepared in MeOH. Then, 20 μL of 1 mM DPPH was dispensed into each well and incubated for 30 min at room temperature with shaking. Absorbance was measured at 517 nm, and results are presented as % radical scavenging activity (% RSA) relative to the solvent control. Ascorbic acid (0.032–100 µM) and tBHQ (0.032–100 µM) served as positive controls, while 0.5% DMSO served as solvent control. The analysis was done in triplicate.

[6] = Mus musculus, RAW264.7, 24 h, Compound pre-treatment 1 h + LPS (1 µg/mL), 24 h, mean ± SD of two independent experiments, read-out: NO Production (IC50)
[7] = Mus musculus, RAW264.7, 24 h, LPS pre-treatment 1 h + compound, single experiment in triplicate, read-out: NO Production (IC50)
[8] = read-out: Cell Viability (IC50), Compound pre-treatment 1 h + LPS, 24 h, mean ± SD of two independent experiments
[9] = read-out: Cell Viability (IC50), LPS pre-treatment 1 h + compound, single experiment in triplicate
[10] = both timepoints (12 h and 16 h)
[11] = Compound pre-treatment 1 h + LPS (1 µg/mL), 24 h, mean ± SD of two independent experiments, read-out: NO Production (IC50)
[12] = LPS pre-treatment 1 h + compound, single experiment in triplicate, read-out: NO Production (IC50)
[13] = Compound pre-treatment 1 h + LPS, 24 h, mean ± SD of two independent experiments
[14] = LPS pre-treatment 1 h + compound, single experiment in triplicate

## C[C@@]12CCCc3coc(c31)C(=O)c1cc3c(cc12)C(=O)C=CC3=O [Compound 1, xestoquinone]
[1]; 12 h, 1.0 and 3.2 μM
  cytotoxicity to Nrf2-MCF7 cells: no cytotoxicity
[1]; 16 h, 1.0 and 3.2 μM
  cytotoxicity to Nrf2-MCF7 cells: no significant cytotoxic effects
Nqo1
  upregulation in Nqo1 expression: did not change the Nqo1 expression
Nos2
  downregulation of LPS-induced Nos2 expression: 2.7 fold
[2]; 12 h, 1.0 μM, relative to solvent control
  Nrf2 activation: at least three
[2]; 12 h, 3.2 μM
  Nrf2 activation: at least three
[2]; 12 h posttreatment
  Nrf2 activation: modest increase in Nrf2 activation
[2]; 16 h, 1.0 μM
  Nrf2 activation: four
[2]; 16 h incubation
  Nrf2 activity in reporter assay: significant activation
[3]; [6]
  IC50: 1.2 ± 0.1 µM
[3]; [7]
  IC50: 0.99 µM
Il1b
  downregulation of Il1b expression: 2.6 fold
[4]; [8]
  CC50: 6 ± 3.2 µM
[4]; [9]
  CC50: 4.9 µM

## C[C@@]12CCCc3coc(c31)C(=O)c1cc3c(cc12)C(=O)C1=C(NCCS1(=O)=O)C3=O [Compound 2, adociaquinone B]
Nqo1
  upregulation in Nqo1 expression: did not change the Nqo1 expression
Nos2
  downregulation of LPS-induced Nos2 expression: unaffected
[2]; [10]
  Nrf2 activation: Nrf2 activation was not observed
[3]; Mus musculus, RAW264.7, 24 h, read-out: NO Production (IC50), Compound pre-treatment 1 h + LPS (1 µg/mL), 24 h, mean ± SD of two independent experiments
  IC50: 1.9 ± 0.72 µM
[3]; Mus musculus, RAW264.7, 24 h, read-out: NO Production (IC50), LPS pre-treatment 1 h + compound, single experiment in triplicate
  IC50: 1.5 µM
Il1b
  downregulation of Il1b expression: 12.1 fold
[4]; [8]
  CC50: 5.3 to 6.4 µM
[4]; [9]
  CC50: 4.2 µM

## CC12CCCc3coc(c31)C(=O)c1cc3c(cc12)C(=O)C=C(CO)C3=O (stereo not shown) [Compound 4, 14-hydroxymethylxestoquinone]
[2]; 12 h posttreatment
  Nrf2 activation: modest increase in Nrf2 activation
[3]; [6]
  IC50: 2.5 ± 0.39 µM
[3]; [7]
  IC50: 1.8 µM
[4]; [8]
  CC50: 16 ± 0.68 µM
[4]; [9]
  CC50: 27 µM
[4]
  decrease in cytotoxicity relative to 1: more than two

## CC12CCCc3coc(c31)C(=O)c1cc3c(cc12)C(=O)C(CO)=CC3=O (stereo not shown) [Compound 5, 15-hydroxymethylxestoquinone]
Nqo1
  upregulation in Nqo1 expression: 3.0 fold
Nos2
  downregulation of LPS-induced Nos2 expression: 2.6 fold
[3]; [6]
  IC50: 4 ± 2.4 µM
[3]; [7]
  IC50: 4.7 µM
Il1b
  downregulation of Il1b expression: 2.1 fold
[4]; [8]
  CC50: > 32 µM
[4]; [9]
  CC50: > 32 µM
[4]
  decrease in cytotoxicity relative to 1: five

## O=C1O[C@H]([C@@H](O)CO)C(O)=C1O [ascorbic acid]
[5]
  IC50: 13 µM

## C[C@@H]1C[C@H]2[C@@H]3CCC4=CC(=O)C=C[C@]4(C)[C@@]3(F)[C@@H](O)C[C@]2(C)[C@@]1(O)C(=O)CO [dexamethasone, reference compound]
[3]; 50 µM
  reduction of NO production: 50%
[3]; [6]
  IC50: > 0.032 µM
[3]; [7]
  IC50: > 0.032 µM
[4]; [8]
  CC50: > 100 µM
[4]; [9]
  CC50: > 100 µM

## CC(C)(C)c1cc(O)ccc1O [tBHQ, reference compound]
[1]; 12 h, 10 and 32 μM
  cytotoxicity to Nrf2-MCF7 cells: no observable cytotoxicity
[1]; 16 h, 10 and 32 μM
  cytotoxicity to Nrf2-MCF7 cells: non-cytotoxic
Nqo1
  upregulation in Nqo1 expression: 6.3 fold
Nos2
  downregulation of LPS-induced Nos2 expression: 3.8 fold
[2]; 12 h, 32 μM
  Nrf2 activation: 18 fold
[2]; 16 h, 10 μM
  Nrf2 activation: four
[2]; 16 h, 32 μM
  Nrf2 activation: 19 fold
[3]; 10 µM
  reduction of NO production: 90%
[3]; [11]
  IC50: 1.2 ± 0.23 µM
[3]; [12]
  IC50: 0.42 µM
Il1b
  downregulation of Il1b expression: six
[4]; [13]
  IC50: > 100 µM
[4]; [14]
  IC50: > 100 µM
[5]
  IC50: 11 µM

## adociaquinone A [Compound 3]
[2]; [10]
  Nrf2 activation: Nrf2 activation was not observed
[3]; [11]
  IC50: 2.1 ± 0.17 µM
[3]; [12]
  IC50: 1.5 µM
[4]; [13]
  IC50: 6.4 ± 1.2 µM
[4]; [14]
  IC50: 5.9 µM
